Laboratory results taken from patent US6117888A, “Thrombin inhibitors” (Merck & Co., Inc., priority 1999, dated 2000).
Like-named read-outs stand apart in the source and are kept apart here.

Biological target: human α-thrombin (Homo sapiens, UniProt P00734)
Test: In vitro assay for determining proteinase inhibition, human α-thrombin
Type: biochemical
Procedure: The assays were carried out at 25° C. in 0.05 M TRIS buffer pH 7.4, 0.15 M NaCl, 0.1% PEG. Trypsin assays also contained 1 mM CaCl2.
Concentrations of stock solutions of Z-GPR-afc were determined from measurements of absorbance at 380 nm of the 7-amino-4-trifluoromethyl coumarin produced upon complete hydrolysis of an aliquot of the stock solution by thrombin.
Times required to achieve equilibration between enzyme and inhibitor were determined in control experiments. Initial velocities of product formation in the absence (Vo) or presence of inhibitor (Vi) were measured. Assuming competitive inhibition, and that unity is negligible compared Km /[S], […] (where [S], [I], and e respectively represent the total concentrations, of substrate, inhibitor and enzyme), the equilibrium constant (Ki) for dissociation of the inhibitor from the enzyme can be obtained from the dependence of Vo /Vi on [I] shown in equation 1.

[1] = thrombin, 25° C., 0.05 M TRIS buffer pH 7.4, 0.15 M NaCl, 0.1% PEG, read-out: Inhibitory activity, Ki

| Compound | Ki | Ki [1] |
| --- | --- | --- |
| Cc1nc(N)ccc1CNC(=O)Cn1c(C)cc(S(=O)(=O)NCC2CCC2)c(N)c1=O | < 5 nM | – |
| Cc1nc(N)ccc1CNC(=O)Cn1c(C)cc(S(=O)(=O)N2CCCC2)c(N)c1=O | – | < 5 nM |
| Cc1nc(N)ccc1CNC(=O)Cn1c(C)cc2c(c1=O)NCC(c1ccccc1)S2(=O)=O (centres unmarked) | – | > 5 nM |

The remaining lines, values ahead:

| Ki | Ki [1] | Compound |
| --- | --- | --- |
| < 5 nM | – | Cc1nc(N)ccc1CNC(=O)Cn1c(C)cc2c(c1=O)NCN(CC1CC1)S2(=O)=O |
| – | > 5 nM | Cc1nc(N)ccc1CNC(=O)Cn1c(C)cc2c(c1=O)NCCS2(=O)=O |
